Assay results reported in BindingDB's records for doi:10.1021/jm0009641 (University of Bristol, 2000).
pKi: −log10 of the molar value.

Assays:
[1] = Displacement of radioligand [3H]- DPDPE on Opioid receptor delta 1 in monkey brain membranes
[2] = Displacement of radioligand [3H]- DAMGO on Opioid receptor mu 1 in monkey brain membranes range; Value ranges from (0.32-0.91)
[3] = Displacement of radioligand [3H]- DPDPE on Opioid receptor delta 1 in monkey brain membranes range; Value ranges from (34.0-43.2)
[4] = Displacement of radioligand [3H]- U-69,593 on Opioid receptor kappa 1 in monkey brain membranes range; Value ranges from (9.7-14.2)

Compound: O=C(/C=C/c1ccc(Cl)cc1)N[C@@]12CCC(=O)[C@@H]3Oc4c(O)ccc5c4[C@@]31CCN(CC1CC1)[C@@H]2C5 [1N-[4-cyclopropylmethyl-10-hydroxy-14-oxo-(17S)-12-oxa-4-azapentacyclo[9.6.1.01,13.05,17.07,18]octadeca-7,9,11(18)-trien-17-yl]-3-(4-chlorophenyl)-(E)-2-propenamide(Clocinnamox (C-CAM))]
- pKi [1]: 8.80

Compound: COc1ccc2c3c1O[C@H]1C(=O)CC[C@@]4(NC(=O)/C=C/c5ccc(Cl)cc5)[C@@H](C2)N(CC2CC2)CC[C@]314 [1N-[4-cyclopropylmethyl-10-methoxy-14-oxo-(13R)-12-oxa-4-azapentacyclo[9.6.1.01,13.05,17.07,18]octadeca-7,9,11(18)-trien-17-yl]-3-(4-chlorophenyl)-(E)-2-propenamide]
- pKi [1]: 8.35

Compound: O=C(/C=C/c1ccc(Cl)cc1)NC12CCC(=O)C3Oc4cccc5c4[C@@]31CCN(CC1CC1)C2C5 (stereo partly drawn) [1N-[4-cyclopropylmethyl-14-oxo-(13R)-12-oxa-4-azapentacyclo[9.6.1.01,13.05,17.07,18]octadeca-7,9,11(18)-trien-17-yl]-3-(4-chlorophenyl)-(E)-2-propenamide]
- pKi [2]: 9.27
- pKi [3]: 7.43
- pKi [4]: 7.92
